# Data reported in ChEMBL document CHEMBL5360538, “Recent updates on 1,2,3-triazole-containing hybrids with in vivo therapeutic potential against cancers: A mini-review” (Eur J Med Chem, 2023).
# What was measured:
# MDA-MB-231 [1] = experiment: Antiproliferative activity against human MDA-MB-231 cells assessed as reduction in cell viability by MTS assay; assay type: functional, cell-based
# NCI-H211 = experiment: Antiproliferative activity against human NCI-H211 cells assessed as reduction in cell viability by MTS assay; assay type: functional, cell-based
# MGC-803 = experiment: Antitumor activity against human MGC-803 cells xenografted in SCID mouse model assessed as inhibition of tumor growth at 50 mg/kg, po relative to control; assay type: functional
# NCI-H1650 = experiment: Antiproliferative activity against drug-sensitive human NCI-H1650 cells assessed as inhibition of cell growth incubated for 48 hrs by MTT assay; assay type: functional, cell-based; conditions: NCI-H1650, 48 h, pooled result: one value given for 9 cell lines, strains, targets or settings
# KYSE-450 = experiment: Antitumor activity against human KYSE-450 cells xenografted in nu/nu nude mouse model assessed as inhibition of tumor growth at 25 mg/kg, ip administered every day for 15 days relative to control; assay type: functional; conditions: KYSE-450, 360 h, time 15 day
# HCT-116 = experiment: Antiproliferative activity against human HCT-116 cells assessed as inhibition of cell growth incubated for 72 hrs by MTT assay; assay type: functional, cell-based; conditions: HCT-116, 72 h
# A549 [2] = experiment: Antiproliferative activity against human A549 cells assessed as inhibition of cell growth incubated for 72 hrs by MTT assay; assay type: functional, cell-based; conditions: A549, 72 h
# A549/TR = experiment: Antiproliferative activity against taxol-resistant human A549/Taxol cells assessed as inhibition of cell growth incubated for 72 hrs by MTT assay; assay type: functional, cell-based
# U2OS = experiment: Antiproliferative activity against human U2OS cells assessed as inhibition of cell growth incubated for 72 hrs by MTT assay; assay type: functional, cell-based
# A549 [3] = experiment: Antitumor activity against human A549 cells xenografted in Kunming mouse model assessed as inhibition of tumor growth at 20 mg/kg, iv administered twice daily for 2 weeks relative to control; assay type: functional; conditions: A549, 336 h
# [4] = Antiproliferative activity against cisplatin-resistant human A549/DDP cells assessed as inhibition of cell growth incubated for 72 hrs by MTT assay; assay type: functional, cell-based
# animal or person = assay type: functional; conditions: Mus musculus, Lewis lung carcinoma, 480 h, route ip, time 20 day
# [5] = Antitumor activity against mouse Lewis lung carcinoma cells implanted in C57BL/6J mouse model assessed as inhibition of tumor growth at 5.0 mg/kg, ip administered alternate days for 20 days in presence of 5.0 mg/kg gefitinib relative to control; assay type: functional; conditions: 480 h, time 20 day
# A549 [6] = experiment: Antiproliferative activity against human A549 cells assessed as inhibition of cell growth incubated for 24 hrs by MTT assay; assay type: functional, cell-based; conditions: A549, 24 h
# MCF7 [7] = experiment: Antitumor activity against human MCF7 cells xenografted in mouse assessed as tumor growth inhibition by measuring T/C ratio at 25 mg/kg, iv; assay type: functional
# [8] = Plasma clearance in Albino mouse at 1.0 mg/kg, iv; assay type: ADME, organism-based
# BT-474 = experiment: Antiproliferative activity against drug-sensitive human BT-474 cells assessed as inhibition of cell growth by MTT assay; assay type: functional, cell-based
# [9] = Antiproliferative activity against human Tamoxifen-resistant MCF7 cells assessed as inhibition of cell growth by MTT assay; assay type: functional, cell-based
# [10] = Elimination half life in Albino mouse plasma at 1.0 mg/kg, iv; assay type: ADME, organism-based; conditions: read-out: beta t1/2 (converted)
# MDA-MB-231 [11] = experiment: Antiproliferative activity against drug-sensitive human MDA-MB-231 cells assessed as inhibition of cell growth by MTT assay; assay type: functional, cell-based
# [12] = AUC(0 to t) in Albino mouse at 1.0 mg/kg, iv; assay type: ADME, organism-based; set-up: dose 1 mg/kg, route iv; conditions: in vivo
# MCF7 [13] = experiment: Antiproliferative activity against drug-sensitive human MCF7 cells assessed as inhibition of cell growth by MTT assay; assay type: functional, cell-based
# [14] = Antiproliferative activity against human Trastuzumab-resistant BT-474 cells assessed as inhibition of cell growth by MTT assay; assay type: functional, cell-based, Trastuzumab-resistant BT-474 cell
# SK-BR-3 = experiment: Antiproliferative activity against drug-sensitive human SK-BR-3 cells assessed as inhibition of cell growth by MTT assay; assay type: functional, cell-based
# SGC-7901 [15] = experiment: Antiproliferative activity against human SGC-7901 cells assessed as inhibition of cell growth incubated for 72 hrs by MTT assay; assay type: functional, cell-based; conditions: SGC-7901, 72 h
# KYSE-150 cell line = experiment: Antiproliferative activity against human KYSE-150 cells assessed as inhibition of cell growth incubated for 72 hrs by MTT assay; assay type: functional, cell-based; conditions: KYSE-150, 72 h, pooled result: one value given for 5 cell lines, strains, targets or settings
# A549 [16] = experiment: Antitumor activity against human A549 cells xenografted in zebrafish model assessed as reduction in tumor focal area at 2.5 uM relative to control; assay type: functional; set-up: scale not given: the % may be the effect or the level left
# A549 [17] = experiment: Antiproliferative activity against human A549 cells assessed as inhibition of cell growth by MTT assay; assay type: functional, cell-based
# SGC-7901 [18] = experiment: Antiproliferative activity against human SGC-7901 cells assessed as inhibition of cell growth by MTT assay; assay type: functional, cell-based
smiles,measurement,setting,value
Cc1nnn(C)c1-c1cnc2c3ccc(C(C)(C)O)cc3n([C@H](c3ccccc3)C3CCOCC3)c2c1 [EZOBRESIB],IC50,MDA-MB-231 [1],4.97 nM
same,IC50,NCI-H211,6.57 nM
COc1ccc(-n2cc(CN3c4ccccc4Sc4ccccc43)nn2)c([N+](=O)[O-])c1,inhibition in vivo at 50 mg/kg,MGC-803,70.1%
FC(F)(F)c1ccc(-n2cc(-c3cccc(Nc4ncnc5cc6c(cc45)OCCOCCOCCO6)c3)nn2)cc1,IC50,NCI-H1650,3260 nM
same,inhibition in vivo at 25 mg/kg,KYSE-450,25%
CC(C)=CC[C@]12OC(C)(C)C3C[C@H](C=C4C(=O)c5c(OCc6cn(CCN7CCOCC7)nn6)cccc5OC431)C2=O,IC50,HCT-116,280 nM
same,IC50,A549 [2],280 nM
same,IC50,A549/TR,280 nM
same,IC50,U2OS,280 nM
same,inhibition in vivo at 20 mg/kg,A549 [3],71.3%
same,IC50,[4],280 nM
COc1ccc(-c2cn(CC3(C)C=Cc4cc(N)ccc4O3)nn2)cc1 (stereo not given),inhibition in vivo at 5 mg/kg,animal or person,50%
same,inhibition in vivo at 5 mg/kg,[5],80%
same,IC50,A549 [6],2 nM
CCN1CCN(Cc2ccc(Nc3ncc(F)c(-c4cc(F)c5nc(C)n(C(C)C)c5c4)n3)nc2)CC1 [ABEMACICLIB],T/C,MCF7 [7],0.51
same,clearance,[8],43 mL/min/kg
same,IC50,BT-474,153 nM
same,IC50,[9],153 nM
same,half-life,[10],1 h
same,IC50,MDA-MB-231 [11],153 nM
same,AUC(0-t),[12],487 ng·h/mL
same,IC50,MCF7 [13],153 nM
same,IC50,[14],153 nM
same,IC50,SK-BR-3,153 nM
O=C1CCCC2=C1C(c1cn(-c3ccc(Cl)cc3)nn1)C1=C(CCCC1=O)N2,T/C,MCF7 [7],0.2
same,clearance,[8],15.4 mL/min/kg
same,IC50,BT-474,153 nM
same,IC50,[9],153 nM
same,half-life,[10],8.1 h
same,IC50,MDA-MB-231 [11],153 nM
same,AUC(0-t),[12],232 ng·h/mL
same,IC50,MCF7 [13],153 nM
same,IC50,[14],153 nM
same,IC50,SK-BR-3,153 nM
O=c1[nH]cc(F)c(=O)[nH]1 [FLUOROURACIL],IC50,SGC-7901 [15],26300 nM
same,IC50,KYSE-150 cell line,7730 nM
same,inhibition in vivo at 20 mg/kg,A549 [3],64.7%
COc1cc2ncnc(Nc3ccc(F)c(Cl)c3)c2cc1OCCCN1CCOCC1 [GEFITINIB],Activity,A549 [16],18.95%
COc1cc2c(c(OC)c1OC)-c1ccc(OC)c(=O)cc1[C@@H](NC(C)=O)CC2 [COLCHICINE],IC50,A549 [17],43 nM
same,IC50,SGC-7901 [18],43 nM
